Experimental data: PMC8710297, “Identification of potent SENP1 inhibitors that inactivate SENP1/JAK2/STAT signaling pathway and overcome platinum drug resistance in ovarian cancer” (Clinical and Translational Medicine, 2021)

Target: T1, SENP1 (Homo sapiens, UniProt Q9P0U3)
T1 sequence (Q9P0U3 1-644): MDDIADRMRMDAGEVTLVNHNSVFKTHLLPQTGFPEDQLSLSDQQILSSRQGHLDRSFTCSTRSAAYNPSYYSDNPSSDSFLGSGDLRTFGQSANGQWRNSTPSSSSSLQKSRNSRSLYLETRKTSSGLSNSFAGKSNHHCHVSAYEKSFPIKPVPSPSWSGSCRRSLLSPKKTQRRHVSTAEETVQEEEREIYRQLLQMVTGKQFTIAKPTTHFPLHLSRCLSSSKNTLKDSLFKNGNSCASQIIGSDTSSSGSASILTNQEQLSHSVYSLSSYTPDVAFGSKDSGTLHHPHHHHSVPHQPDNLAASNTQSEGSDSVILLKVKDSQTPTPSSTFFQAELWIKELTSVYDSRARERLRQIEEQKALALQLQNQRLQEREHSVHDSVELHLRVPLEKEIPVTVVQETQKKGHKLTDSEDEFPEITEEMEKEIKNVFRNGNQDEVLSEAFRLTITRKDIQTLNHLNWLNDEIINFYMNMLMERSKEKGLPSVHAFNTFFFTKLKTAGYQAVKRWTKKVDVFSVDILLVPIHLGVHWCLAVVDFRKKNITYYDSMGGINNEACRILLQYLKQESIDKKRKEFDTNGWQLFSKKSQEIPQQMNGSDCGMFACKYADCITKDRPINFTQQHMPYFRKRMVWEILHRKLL
Experiment: Cellular thermal shift assay
Type: cell-based
Set-up: endogenous in cells; host or cells: IGROV1 CR cells
Conditions: IGROV1 CR cells, 4 h, higher temperatures
Method: FIGURE 2 UA directly interacts with Sentrin‐specific protease 1 (SENP1). (A) Cellular thermal shift assay to examine the interaction of UA with SENP1. IGROV1 CR cells pretreated with MG132 (10 μM, 1 h) were incubated with DMSO or UA for 4 h before being shifted to indicated temperatures. SENP1 stability was analyzed by using Western blot against SENP1 antibody. Right panel, quantification of non‐denatured SENP1 fraction shown in the left panel. (B) Cell‐free thermal shift assay to examine interactions of UA with SENP1. Purified SENP1 proteins were incubated with DMSO or UA for 4 h before being shifted to the indicated temperatures. SENP1 stability was analyzed by using Western blot against SENP1 antibody. Right panel, quantification of non‐denatured SENP1 fraction shown in the left panel. […] Stability of SENP1(C603A) was analyzed by using Western blot against SENP1 antibody. […] Left; Ultra‐high performance liquid‐chromatography‐MS/MS analyses of associated UA in indicated samples, right; quantification of data shown in left (the binding affinity of UA with SENP1‐C603A was normalized as 1). […]
FIGURE 3 Identification of UAMMC9 from UA derivatives. […] Stability of SENP1(C603A) was analyzed by using Western blot against SENP1 antibody. […]
The qu anti ficatio n of immunohistochemical sta in ing wa s scored blindly at lea st by two […]

| Structure (SMILES) | thermal stabilization of SENP1 in cells |
| --- | --- |
| C[C@H]1[C@H](C)CC[C@]2(C(=O)NCC(=O)N(C)CCO)CC[C@]3(C)C(=CC[C@@H]4[C@@]5(C)CC[C@H](O)C(C)(C)[C@@H]5CC[C@]43C)[C@H]12 [UAMMC9] | directly interacted with SENP1 |
| C[C@H]1[C@H](C)CC[C@]2(C(=O)O)CC[C@]3(C)C(=CC[C@@H]4[C@@]5(C)CC[C@H](O)C(C)(C)[C@@H]5CC[C@]43C)[C@H]12 [UA, ursolic acid, reference compound] | stabilized |
